In article PMC8471451 (Pharmaceuticals, 2021):
Where “and” joins values, the source holds several entries; their conditions need not be identical. Identical values can stand only once.

Tests used:
HEK-293T-ACE2^h cells = assay: Cytotoxicity by MTT assay; type: cell-based, human; settings: for CC0 (maximum nontoxic concentration): 4 h incubation; for TC50 (concentration causing 50% host cells' death): 48 h treatment
Procedure: The cytotoxic effect of honokiol derivatives on HEK-293T-ACE2^h cells was evaluated by MTT assay. HEK-293T-ACE2^h cells were seed into 96-well plate at a density of 1×10^4 cells per well and then treated with various concentrations of compounds for either 4 or 48 h. Then 10 μL of 3-(4, 5-dimethylthiazol-2-yl)-2, 5-diphenyltetrazolium bromide (MTT) (5 mg/mL) solution was added to each well for another 4 h incubation. The supernatants were then removed, and the formed formazan crystals were dissolved in 100 μL DMSO and the plate was agitated for 10 min. Relative cell viability was assessed by measuring the absorbance at 570 nm by using a microplate reader (Infinite M200 PRO Microplate Reader, Tecan, Swiss). The survival rate of HEK-293T-ACE2^h cells was calculated using the following formula: [(ODtreated-ODblank) / (ODcontrol-ODblank)] × 100%. The 50% toxic concentration (TC50) for 48 h was calculated by the GraphPad Prism 8.0 software (La Jolla, CA, USA). The maximum nontoxic concentration (CC0) for 4 h was determined as the maximum tested concentration in which the cell viability was 100%. Data were obtained from three independent experiments.

[1] = test system: SARS-CoV-2 spike pseudovirus; assay: microbe, parasite or virus in culture; type: cell-based; settings: for IC50: Severe acute respiratory syndrome coronavirus 2, read-out: IC50 (inhibition of 50% viral entry into host cells)
human ACE2 protein = target: T1, human ACE2 protein (Homo sapiens, UniProt Q9BYF1); assay: Biolayer interferometry (BLI) binding assay with human ACE2; settings: His-tagged human ACE2 on Ni-NTA biosensor, 30 °C, 1:1 model
T1 construct: purchased Sino Biological

[2] = target: T2, SARS-CoV-2 spike RBD binding with ACE2 protein (Homo sapiens, UniProt Q9BYF1); assay: Competitive ELISA of spike RBD binding with ACE2; type: biochemical; settings: read-out: Inhibitory rate of spike RBD-ACE2 binding
T2 construct: purchased Sino Biological

[3] = target: T3, SARS-CoV-2 spike RBD protein (Severe acute respiratory syndrome coronavirus 2, UniProt P0DTC2); type: binding
T3 construct: purchased Sino Biological

T2 sequence (Q9BYF1 18-740): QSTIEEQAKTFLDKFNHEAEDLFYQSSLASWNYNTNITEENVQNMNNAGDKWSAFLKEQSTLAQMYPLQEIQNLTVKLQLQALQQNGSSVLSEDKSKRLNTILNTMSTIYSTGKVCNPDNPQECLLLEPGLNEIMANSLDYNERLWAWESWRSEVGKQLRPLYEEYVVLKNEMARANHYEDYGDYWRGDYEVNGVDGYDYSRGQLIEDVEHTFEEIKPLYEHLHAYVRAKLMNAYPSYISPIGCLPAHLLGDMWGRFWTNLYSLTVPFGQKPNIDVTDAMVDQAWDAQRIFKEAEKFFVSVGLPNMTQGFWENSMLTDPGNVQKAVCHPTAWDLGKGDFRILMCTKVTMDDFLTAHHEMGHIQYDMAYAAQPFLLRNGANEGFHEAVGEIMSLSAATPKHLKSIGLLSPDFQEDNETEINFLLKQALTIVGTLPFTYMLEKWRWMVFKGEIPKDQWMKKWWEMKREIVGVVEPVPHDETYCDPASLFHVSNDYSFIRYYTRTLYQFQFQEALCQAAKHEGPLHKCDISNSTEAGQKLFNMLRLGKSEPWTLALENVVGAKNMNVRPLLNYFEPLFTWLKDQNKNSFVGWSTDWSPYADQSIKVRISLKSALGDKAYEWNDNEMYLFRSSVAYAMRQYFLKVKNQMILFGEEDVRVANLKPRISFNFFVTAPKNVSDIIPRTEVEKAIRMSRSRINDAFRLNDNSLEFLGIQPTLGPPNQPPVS
T1 sequence (Q9BYF1 18-805): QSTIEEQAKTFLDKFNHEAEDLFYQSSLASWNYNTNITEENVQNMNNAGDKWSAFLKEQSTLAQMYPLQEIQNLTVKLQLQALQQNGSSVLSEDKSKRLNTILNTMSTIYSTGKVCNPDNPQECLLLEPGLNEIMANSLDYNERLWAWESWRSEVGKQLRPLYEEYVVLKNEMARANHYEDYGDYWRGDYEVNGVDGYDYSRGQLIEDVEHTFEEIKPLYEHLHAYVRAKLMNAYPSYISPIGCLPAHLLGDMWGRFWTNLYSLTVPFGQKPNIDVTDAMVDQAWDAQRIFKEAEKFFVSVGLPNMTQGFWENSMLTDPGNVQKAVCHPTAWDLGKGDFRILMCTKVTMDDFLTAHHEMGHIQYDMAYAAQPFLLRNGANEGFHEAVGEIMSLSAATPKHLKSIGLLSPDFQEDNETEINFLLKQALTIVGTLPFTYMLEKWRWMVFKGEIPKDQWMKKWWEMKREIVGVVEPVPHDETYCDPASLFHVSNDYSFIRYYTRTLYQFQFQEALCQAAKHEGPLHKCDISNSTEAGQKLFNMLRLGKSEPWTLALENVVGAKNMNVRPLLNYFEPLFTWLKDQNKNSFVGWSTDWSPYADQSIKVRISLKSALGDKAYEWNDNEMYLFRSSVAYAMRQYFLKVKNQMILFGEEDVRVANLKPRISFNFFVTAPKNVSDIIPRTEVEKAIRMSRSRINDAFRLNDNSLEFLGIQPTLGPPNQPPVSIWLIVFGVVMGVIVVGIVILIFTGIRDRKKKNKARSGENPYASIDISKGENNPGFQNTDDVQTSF

C=CCc1cc(-c2cc(CC=C)c3oc(=O)n(Cc4nnc(-c5ccccc5)o4)c3c2)c2oc(=O)n(Cc3nnc(-c4ccccc4)o3)c2c1 [Compound 6a]
CC0 (maximum nontoxic concentration) (HEK-293T-ACE2^h cells): >100 µM
TC50 (concentration causing 50% host cells' death) (HEK-293T-ACE2^h cells): >100 µM
SI (selectivity index, TC50/IC50) [1]: >3.42
IC50 [1]: 29.2 ± 0.71 µM
Kd (human ACE2 protein): 8.41 ± 0.43 µM

C=CCc1cc(-c2cc(CC=C)c3oc(=O)n(Cc4nnc(-c5ccccc5Cl)o4)c3c2)c2oc(=O)n(Cc3nnc(-c4ccccc4Cl)o3)c2c1 [Compound 6b]
CC0 (maximum nontoxic concentration) (HEK-293T-ACE2^h cells): >100 µM
TC50 (concentration causing 50% host cells' death) (HEK-293T-ACE2^h cells): >100 µM
IC50 [1]: > 100 µM

C=CCc1cc(-c2cc(CC=C)c3oc(=O)n(Cc4nnc(-c5cccc(Cl)c5)o4)c3c2)c2oc(=O)n(Cc3nnc(-c4cccc(Cl)c4)o3)c2c1 [Compound 6c]
CC0 (maximum nontoxic concentration) (HEK-293T-ACE2^h cells): >100 µM
TC50 (concentration causing 50% host cells' death) (HEK-293T-ACE2^h cells): >100 µM
IC50 [1]: > 100 µM

C=CCc1cc(-c2cc(CC=C)c3oc(=O)n(Cc4nnc(-c5ccc(Cl)cc5)o4)c3c2)c2oc(=O)n(Cc3nnc(-c4ccc(Cl)cc4)o3)c2c1 [Compound 6d]
CC0 (maximum nontoxic concentration) (HEK-293T-ACE2^h cells): 50 µM
IC50 [1]: > 50 µM

C=CCc1cc(-c2cc(CC=C)c3oc(=O)n(Cc4nnc(-c5ccccc5Br)o4)c3c2)c2oc(=O)n(Cc3nnc(-c4ccccc4Br)o3)c2c1 [Compound 6e]
CC0 (maximum nontoxic concentration) (HEK-293T-ACE2^h cells): >100 µM
TC50 (concentration causing 50% host cells' death) (HEK-293T-ACE2^h cells): >100 µM
IC50 [1]: > 100 µM

C=CCc1cc(-c2cc(CC=C)c3oc(=O)n(Cc4nnc(-c5cccc(Br)c5)o4)c3c2)c2oc(=O)n(Cc3nnc(-c4cccc(Br)c4)o3)c2c1 [Compound 6f]
CC0 (maximum nontoxic concentration) (HEK-293T-ACE2^h cells): 50 µM
IC50 [1]: > 50 µM

C=CCc1cc(-c2cc(CC=C)c3oc(=O)n(Cc4nnc(-c5ccc(Br)cc5)o4)c3c2)c2oc(=O)n(Cc3nnc(-c4ccc(Br)cc4)o3)c2c1 [Compound 6g]
CC0 (maximum nontoxic concentration) (HEK-293T-ACE2^h cells): 50 µM
IC50 [1]: > 50 µM

C=CCc1cc(-c2cc(CC=C)c3oc(=O)n(Cc4nnc(-c5ccccc5F)o4)c3c2)c2oc(=O)n(Cc3nnc(-c4ccccc4F)o3)c2c1 [Compound 6h]
CC0 (maximum nontoxic concentration) (HEK-293T-ACE2^h cells): >100 µM
SI (selectivity index, TC50/IC50) [1]: >1.62
IC50 [1]: 61.6 ± 1.21 µM

C=CCc1cc(-c2cc(CC=C)c3oc(=O)n(Cc4nnc(-c5cccc(F)c5)o4)c3c2)c2oc(=O)n(Cc3nnc(-c4cccc(F)c4)o3)c2c1 [Compound 6i]
CC0 (maximum nontoxic concentration) (HEK-293T-ACE2^h cells): >100 µM
TC50 (concentration causing 50% host cells' death) (HEK-293T-ACE2^h cells): >100 µM
Antiviral entry activity (in words) [1]: complete loss of antiviral activities
IC50 [1]: > 100 µM

C=CCc1cc(-c2cc(CC=C)c3oc(=O)n(Cc4nnc(-c5ccc(F)cc5)o4)c3c2)c2oc(=O)n(Cc3nnc(-c4ccc(F)cc4)o3)c2c1 [Compound 6j]
CC0 (maximum nontoxic concentration) (HEK-293T-ACE2^h cells): 50 µM
Antiviral entry activity (in words) [1]: complete loss of antiviral activities
IC50 [1]: > 50 µM

C=CCc1cc(-c2cc(CC=C)c3oc(=O)n(Cc4nnc(-c5ccccc5C)o4)c3c2)c2oc(=O)n(Cc3nnc(-c4ccccc4C)o3)c2c1 [Compound 6k]
CC0 (maximum nontoxic concentration) (HEK-293T-ACE2^h cells): >100 µM
TC50 (concentration causing 50% host cells' death) (HEK-293T-ACE2^h cells): >100 µM
IC50 [1]: > 100 µM

C=CCc1cc(-c2cc(CC=C)c3oc(=O)n(Cc4nnc(-c5cccc(C)c5)o4)c3c2)c2oc(=O)n(Cc3nnc(-c4cccc(C)c4)o3)c2c1 [Compound 6l]
CC0 (maximum nontoxic concentration) (HEK-293T-ACE2^h cells): >100 µM
TC50 (concentration causing 50% host cells' death) (HEK-293T-ACE2^h cells): >100 µM
IC50 [1]: > 100 µM

C=CCc1cc(-c2cc(CC=C)c3oc(=O)n(Cc4nnc(-c5ccc(C)cc5)o4)c3c2)c2oc(=O)n(Cc3nnc(-c4ccc(C)cc4)o3)c2c1 [Compound 6m]
CC0 (maximum nontoxic concentration) (HEK-293T-ACE2^h cells): 50 µM
IC50 [1]: > 50 µM

C=CCc1cc(-c2cc(CC=C)c3oc(=O)n(Cc4nnc(-c5ccccc5OC)o4)c3c2)c2oc(=O)n(Cc3nnc(-c4ccccc4OC)o3)c2c1 [Compound 6n]
CC0 (maximum nontoxic concentration) (HEK-293T-ACE2^h cells): 50 µM
IC50 [1]: > 50 µM

C=CCc1cc(-c2cc(CC=C)c3oc(=O)n(Cc4nnc(-c5cccc(OC)c5)o4)c3c2)c2oc(=O)n(Cc3nnc(-c4cccc(OC)c4)o3)c2c1 [Compound 6o]
CC0 (maximum nontoxic concentration) (HEK-293T-ACE2^h cells): >100 µM
TC50 (concentration causing 50% host cells' death) (HEK-293T-ACE2^h cells): >100 µM
IC50 [1]: > 100 µM

C=CCc1cc(-c2cc(CC=C)c3oc(=O)n(Cc4nnc(-c5ccc(OC)cc5)o4)c3c2)c2oc(=O)n(Cc3nnc(-c4ccc(OC)cc4)o3)c2c1 [Compound 6p]
CC0 (maximum nontoxic concentration) (HEK-293T-ACE2^h cells): >100 µM
TC50 (concentration causing 50% host cells' death) (HEK-293T-ACE2^h cells): >100 µM
SI (selectivity index, TC50/IC50) [1]: >10.18
IC50 [1]: 9.82 ± 1.16 µM
inhibition at 12.5 µM ([2]; 12.5 µM): 26.1%
inhibition at 25 µM [2]: 37.2%
inhibition at 50 µM [2]: 50.4%
Interaction with spike RBD [3]: doesn’t show interaction
Kd (human ACE2 protein): 6.87 ± 0.29 µM

C=CCc1ccc(O)c(-c2ccc(O)c(CC=C)c2)c1 [honokiol, reference compound]
CC0 (maximum nontoxic concentration) (HEK-293T-ACE2^h cells): 50 µM
TC50 (concentration causing 50% host cells' death) (HEK-293T-ACE2^h cells): 48.23 µM and 48.23 ± 1.19 µM
IC50 [1]: > 50 µM
inhibition at 25 µM [2]: 13.8%
inhibition at 50 µM [2]: 20.9%
Kd (human ACE2 protein): 17 ± 3.4 µM
